# Source: ChEMBL document CHEMBL3991601, “The target landscape of clinical kinase drugs” (Science, 2017)
# Calls of active or inactive are those of the source.
# How the values were obtained:
# [1] = target: Dual specificity mitogen-activated protein kinase kinase 1 (Homo sapiens, UniProt Q02750)
# [2] = target: T1, Cyclin-dependent kinase-like 5 (Homo sapiens, UniProt O76039)
# T1 sequence (O76039 whole entry): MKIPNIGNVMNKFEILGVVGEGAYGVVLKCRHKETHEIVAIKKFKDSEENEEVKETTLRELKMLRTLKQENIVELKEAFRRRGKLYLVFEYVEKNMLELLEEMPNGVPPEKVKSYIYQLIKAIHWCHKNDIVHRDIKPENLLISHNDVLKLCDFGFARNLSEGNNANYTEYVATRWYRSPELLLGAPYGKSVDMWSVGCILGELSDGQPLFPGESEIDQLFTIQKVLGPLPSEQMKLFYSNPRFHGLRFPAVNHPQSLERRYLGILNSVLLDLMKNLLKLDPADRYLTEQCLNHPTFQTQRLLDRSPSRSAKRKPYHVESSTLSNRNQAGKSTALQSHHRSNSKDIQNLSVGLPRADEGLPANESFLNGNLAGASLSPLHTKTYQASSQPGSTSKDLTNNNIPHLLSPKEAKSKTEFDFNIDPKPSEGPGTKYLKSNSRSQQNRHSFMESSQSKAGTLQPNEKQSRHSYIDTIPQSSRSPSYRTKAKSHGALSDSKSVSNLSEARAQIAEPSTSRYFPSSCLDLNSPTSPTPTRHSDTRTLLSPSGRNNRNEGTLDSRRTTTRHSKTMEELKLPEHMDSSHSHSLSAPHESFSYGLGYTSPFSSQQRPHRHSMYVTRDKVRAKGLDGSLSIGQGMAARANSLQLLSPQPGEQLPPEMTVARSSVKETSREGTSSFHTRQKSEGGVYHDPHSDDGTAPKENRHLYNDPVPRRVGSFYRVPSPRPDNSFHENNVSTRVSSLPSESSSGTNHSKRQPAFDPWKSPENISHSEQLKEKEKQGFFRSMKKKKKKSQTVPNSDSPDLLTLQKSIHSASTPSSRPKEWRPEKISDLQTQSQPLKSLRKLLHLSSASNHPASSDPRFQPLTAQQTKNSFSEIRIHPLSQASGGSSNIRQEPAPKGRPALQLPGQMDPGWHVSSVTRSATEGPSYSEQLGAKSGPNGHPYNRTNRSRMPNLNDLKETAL
# [3] = target: Serine/threonine-protein kinase N3 (Homo sapiens, UniProt Q6P5Z2)
# Chain of Serine/threonine-protein kinase N3 (Q6P5Z2 whole entry): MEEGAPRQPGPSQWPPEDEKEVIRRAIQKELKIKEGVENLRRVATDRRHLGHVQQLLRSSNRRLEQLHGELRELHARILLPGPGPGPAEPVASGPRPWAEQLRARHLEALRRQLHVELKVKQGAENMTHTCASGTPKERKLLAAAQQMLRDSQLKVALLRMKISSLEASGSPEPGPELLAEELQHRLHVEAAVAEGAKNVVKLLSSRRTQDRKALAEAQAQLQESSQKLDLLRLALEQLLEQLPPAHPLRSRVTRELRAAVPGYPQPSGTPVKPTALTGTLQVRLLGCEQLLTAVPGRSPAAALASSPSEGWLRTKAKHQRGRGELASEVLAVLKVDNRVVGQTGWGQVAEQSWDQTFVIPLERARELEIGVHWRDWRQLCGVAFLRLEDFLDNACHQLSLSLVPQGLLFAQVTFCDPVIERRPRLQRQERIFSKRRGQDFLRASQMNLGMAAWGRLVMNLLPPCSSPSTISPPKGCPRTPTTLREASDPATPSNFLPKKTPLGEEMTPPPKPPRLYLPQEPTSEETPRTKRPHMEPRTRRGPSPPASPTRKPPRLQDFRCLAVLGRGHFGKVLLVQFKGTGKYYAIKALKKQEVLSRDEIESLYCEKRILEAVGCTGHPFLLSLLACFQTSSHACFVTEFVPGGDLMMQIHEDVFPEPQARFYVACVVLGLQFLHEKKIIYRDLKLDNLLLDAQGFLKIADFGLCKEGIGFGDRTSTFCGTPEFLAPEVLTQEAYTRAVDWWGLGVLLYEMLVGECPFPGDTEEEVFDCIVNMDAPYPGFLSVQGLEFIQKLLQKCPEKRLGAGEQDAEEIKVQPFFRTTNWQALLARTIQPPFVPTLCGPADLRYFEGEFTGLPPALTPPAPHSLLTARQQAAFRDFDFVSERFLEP
# [4] = target: T2, Receptor-type tyrosine-protein kinase FLT3 (Homo sapiens, UniProt P36888)
# T2 sequence (P36888 whole entry): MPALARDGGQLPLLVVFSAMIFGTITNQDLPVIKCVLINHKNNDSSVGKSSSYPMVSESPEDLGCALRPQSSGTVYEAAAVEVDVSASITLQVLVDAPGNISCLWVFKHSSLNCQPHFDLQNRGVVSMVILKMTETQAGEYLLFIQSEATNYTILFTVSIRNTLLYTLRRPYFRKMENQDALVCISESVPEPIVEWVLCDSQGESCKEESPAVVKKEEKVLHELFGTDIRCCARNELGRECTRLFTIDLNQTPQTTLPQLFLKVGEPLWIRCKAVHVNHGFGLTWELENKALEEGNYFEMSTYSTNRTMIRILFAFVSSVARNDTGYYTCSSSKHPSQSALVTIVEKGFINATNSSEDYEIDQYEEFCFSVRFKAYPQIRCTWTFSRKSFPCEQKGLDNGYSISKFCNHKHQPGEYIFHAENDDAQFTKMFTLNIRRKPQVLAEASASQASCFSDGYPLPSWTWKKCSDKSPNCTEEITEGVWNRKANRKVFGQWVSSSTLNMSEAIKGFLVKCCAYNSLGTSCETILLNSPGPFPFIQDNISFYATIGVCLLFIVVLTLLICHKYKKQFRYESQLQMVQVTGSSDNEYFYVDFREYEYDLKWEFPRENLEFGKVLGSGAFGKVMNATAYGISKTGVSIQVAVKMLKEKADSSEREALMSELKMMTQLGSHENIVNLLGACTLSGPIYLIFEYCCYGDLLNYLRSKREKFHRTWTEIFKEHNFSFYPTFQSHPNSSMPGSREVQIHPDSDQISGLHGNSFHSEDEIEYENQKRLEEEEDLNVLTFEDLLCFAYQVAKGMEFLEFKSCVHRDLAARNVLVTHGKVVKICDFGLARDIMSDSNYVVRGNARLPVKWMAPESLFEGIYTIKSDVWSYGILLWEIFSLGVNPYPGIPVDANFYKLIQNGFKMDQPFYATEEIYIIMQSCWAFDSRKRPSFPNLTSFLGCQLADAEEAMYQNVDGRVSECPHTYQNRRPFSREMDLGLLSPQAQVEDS
# [5] = target: PAS domain-containing serine/threonine-protein kinase (Homo sapiens, UniProt Q96RG2)
# Chain of PAS domain-containing serine/threonine-protein kinase (Q96RG2 whole entry, the tested form may be a part): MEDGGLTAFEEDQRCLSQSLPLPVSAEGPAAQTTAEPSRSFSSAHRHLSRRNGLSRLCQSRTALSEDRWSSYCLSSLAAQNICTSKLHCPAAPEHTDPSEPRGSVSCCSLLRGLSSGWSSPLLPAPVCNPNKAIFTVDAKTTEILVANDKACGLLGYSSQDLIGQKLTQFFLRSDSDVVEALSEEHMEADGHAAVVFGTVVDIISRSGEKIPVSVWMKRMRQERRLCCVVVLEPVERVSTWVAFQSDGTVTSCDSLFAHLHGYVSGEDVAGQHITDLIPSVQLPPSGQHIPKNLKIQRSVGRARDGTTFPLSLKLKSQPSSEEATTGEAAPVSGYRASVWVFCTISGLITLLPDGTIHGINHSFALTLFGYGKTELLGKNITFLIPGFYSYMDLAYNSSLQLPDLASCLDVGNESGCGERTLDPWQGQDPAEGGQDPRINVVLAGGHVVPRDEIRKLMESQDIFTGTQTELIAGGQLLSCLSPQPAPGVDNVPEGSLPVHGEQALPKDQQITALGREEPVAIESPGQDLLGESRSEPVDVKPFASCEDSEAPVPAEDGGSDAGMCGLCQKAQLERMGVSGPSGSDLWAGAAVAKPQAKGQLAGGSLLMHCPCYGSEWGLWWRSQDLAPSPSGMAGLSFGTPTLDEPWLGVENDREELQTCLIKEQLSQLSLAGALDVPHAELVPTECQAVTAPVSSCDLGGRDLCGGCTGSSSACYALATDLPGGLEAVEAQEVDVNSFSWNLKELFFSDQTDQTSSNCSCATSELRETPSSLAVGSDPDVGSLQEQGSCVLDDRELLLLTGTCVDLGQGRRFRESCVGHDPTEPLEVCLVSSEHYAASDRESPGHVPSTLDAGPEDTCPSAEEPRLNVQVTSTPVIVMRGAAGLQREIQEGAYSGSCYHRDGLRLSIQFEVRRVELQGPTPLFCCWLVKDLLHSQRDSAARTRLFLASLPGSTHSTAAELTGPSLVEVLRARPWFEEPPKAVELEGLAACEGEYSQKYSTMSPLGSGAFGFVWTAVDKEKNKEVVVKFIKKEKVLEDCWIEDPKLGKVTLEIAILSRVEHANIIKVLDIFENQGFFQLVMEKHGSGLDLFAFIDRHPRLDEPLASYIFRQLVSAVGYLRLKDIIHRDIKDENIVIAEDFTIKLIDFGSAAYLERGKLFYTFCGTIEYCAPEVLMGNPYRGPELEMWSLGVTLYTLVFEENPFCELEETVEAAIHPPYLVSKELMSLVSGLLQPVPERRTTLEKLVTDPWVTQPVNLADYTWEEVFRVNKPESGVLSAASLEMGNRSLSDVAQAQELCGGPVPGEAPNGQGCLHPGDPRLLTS
# [6] = target: Phosphatidylethanolamine-binding protein 1 (Homo sapiens, UniProt P30086)
# Chain of Phosphatidylethanolamine-binding protein 1 (P30086 whole entry): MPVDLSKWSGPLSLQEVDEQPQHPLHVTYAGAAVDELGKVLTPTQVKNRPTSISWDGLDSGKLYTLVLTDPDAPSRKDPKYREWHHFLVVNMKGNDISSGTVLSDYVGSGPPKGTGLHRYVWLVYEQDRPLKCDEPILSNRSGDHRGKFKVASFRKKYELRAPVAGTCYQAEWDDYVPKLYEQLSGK
# [7] = target: DNA topoisomerase 2-alpha (Homo sapiens, UniProt P11388)
# Chain of DNA topoisomerase 2-alpha (P11388 whole entry): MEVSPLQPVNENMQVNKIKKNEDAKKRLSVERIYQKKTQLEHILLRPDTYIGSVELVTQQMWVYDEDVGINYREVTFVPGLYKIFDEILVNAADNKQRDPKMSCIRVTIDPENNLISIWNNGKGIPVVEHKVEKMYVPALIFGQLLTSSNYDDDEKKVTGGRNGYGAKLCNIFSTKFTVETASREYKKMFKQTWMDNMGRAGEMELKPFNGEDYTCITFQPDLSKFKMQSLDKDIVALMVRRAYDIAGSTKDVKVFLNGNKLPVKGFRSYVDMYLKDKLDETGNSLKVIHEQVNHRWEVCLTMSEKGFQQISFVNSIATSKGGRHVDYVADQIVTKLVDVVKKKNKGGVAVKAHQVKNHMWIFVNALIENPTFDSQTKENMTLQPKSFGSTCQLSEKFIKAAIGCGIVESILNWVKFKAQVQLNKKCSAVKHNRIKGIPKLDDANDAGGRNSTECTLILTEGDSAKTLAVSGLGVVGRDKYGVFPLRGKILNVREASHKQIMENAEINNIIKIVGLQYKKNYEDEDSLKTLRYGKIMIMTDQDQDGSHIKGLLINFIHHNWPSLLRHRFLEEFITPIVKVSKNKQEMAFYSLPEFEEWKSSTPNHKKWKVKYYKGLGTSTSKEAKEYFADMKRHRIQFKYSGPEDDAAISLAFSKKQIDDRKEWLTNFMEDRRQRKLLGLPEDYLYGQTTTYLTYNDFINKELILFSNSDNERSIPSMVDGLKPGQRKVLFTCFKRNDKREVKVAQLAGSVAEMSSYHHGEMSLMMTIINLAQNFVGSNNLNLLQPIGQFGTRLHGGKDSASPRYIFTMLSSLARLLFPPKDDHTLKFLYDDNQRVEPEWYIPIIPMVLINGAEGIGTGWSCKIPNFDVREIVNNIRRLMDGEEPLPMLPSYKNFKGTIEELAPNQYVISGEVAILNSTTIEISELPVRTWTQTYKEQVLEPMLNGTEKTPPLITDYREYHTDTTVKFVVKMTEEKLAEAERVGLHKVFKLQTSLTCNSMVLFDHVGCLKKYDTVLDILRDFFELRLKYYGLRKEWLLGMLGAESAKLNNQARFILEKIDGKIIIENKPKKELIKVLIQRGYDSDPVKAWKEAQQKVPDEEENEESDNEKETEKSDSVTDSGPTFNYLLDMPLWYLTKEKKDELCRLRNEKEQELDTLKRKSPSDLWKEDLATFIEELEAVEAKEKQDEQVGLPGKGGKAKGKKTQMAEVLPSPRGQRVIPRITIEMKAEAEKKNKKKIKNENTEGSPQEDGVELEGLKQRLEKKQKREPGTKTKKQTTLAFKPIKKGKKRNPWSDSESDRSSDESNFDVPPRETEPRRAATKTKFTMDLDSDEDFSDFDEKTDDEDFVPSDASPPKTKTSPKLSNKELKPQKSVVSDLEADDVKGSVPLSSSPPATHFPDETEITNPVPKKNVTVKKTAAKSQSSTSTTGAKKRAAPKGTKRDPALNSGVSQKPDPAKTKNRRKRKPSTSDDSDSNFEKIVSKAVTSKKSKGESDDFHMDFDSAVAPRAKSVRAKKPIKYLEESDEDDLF
# Further: in the data inactive means no Kd found up to 30 µM.
# Chain of Dual specificity mitogen-activated protein kinase kinase 1 (Q02750 whole entry): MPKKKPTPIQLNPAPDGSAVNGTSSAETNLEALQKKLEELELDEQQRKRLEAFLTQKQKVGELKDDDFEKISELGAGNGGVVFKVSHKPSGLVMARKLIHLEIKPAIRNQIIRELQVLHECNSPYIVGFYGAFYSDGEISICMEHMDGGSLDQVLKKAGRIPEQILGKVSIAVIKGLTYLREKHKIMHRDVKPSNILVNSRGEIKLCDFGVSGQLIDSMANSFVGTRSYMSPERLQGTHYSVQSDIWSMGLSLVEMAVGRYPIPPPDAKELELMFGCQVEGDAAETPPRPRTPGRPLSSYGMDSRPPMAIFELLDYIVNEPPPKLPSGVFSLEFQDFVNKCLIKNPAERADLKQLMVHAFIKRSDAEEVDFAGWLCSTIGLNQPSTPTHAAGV
Kd [1],Kd [2],Kd [3],Kd [4],Kd [5],Kd [6],Kd [7],Structure (SMILES)
> 30 µM (inactive),> 30 µM (inactive),> 30 µM (inactive),1.31 µM (active),> 30 µM (inactive),> 30 µM (inactive),> 30 µM (inactive),COc1cc2ncnc(Nc3ccc(O)cc3)c2cc1OC [WHI-P131]
> 30 µM (inactive),> 30 µM (inactive),> 30 µM (inactive),> 30 µM (inactive),> 30 µM (inactive),> 30 µM (inactive),> 30 µM (inactive),O[C@H]1CC[C@H](Nc2ncc3nc(Nc4c(F)cc(F)cc4F)n([C@H]4CCOC4)c3n2)CC1 [TANZISERTIB]
> 30 µM (inactive),> 30 µM (inactive),> 30 µM (inactive),> 30 µM (inactive),> 30 µM (inactive),> 30 µM (inactive),> 30 µM (inactive),NC(=O)c1ccc(N(C(N)=O)c2c(F)cccc2F)nc1-c1ccc(F)cc1F [VX-702]

Structure (SMILES),Kd [1],Kd [2],Kd [3],Kd [4],Kd [5],Kd [6],Kd [7]
Cn1cc(-c2[nH]c3cc(NC(=O)[C@H](N)C4CCCCC4)cc4c3c2C=NNC4=O)cn1,> 30 µM (inactive),> 30 µM (inactive),> 30 µM (inactive),0.05 µM (active),> 30 µM (inactive),> 30 µM (inactive),> 30 µM (inactive)
